The values that follow come from ChEMBL document CHEMBL1201862, “PubChem BioAssay data set” (2004).

Among the test systems are BT-549; CAKI-1; EKVX; HCT-116; HCT-15; HL-60; K562; MDA-MB-435; NCI-H23; NCI/ADR-RES; OVCAR-3; OVCAR-8; SF-268; SF-295; SK-MEL-5; U-251; UACC-62; CCRF-CEM; LOX IMVI.
Holding throughout (assay): growth of human tumour cells (NCI), 48 h

SMILES strings stand for the structures.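 Assay format: 96-well plates, 48-hour exposure. GI50 is the concentration that inhibits growth by half.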 Active and inactive are the calls of the source. No stated cut-off is given here; in the data, active = GI50 up to about 1.1 µM and inactive = higher.

Take `Cc1[nH]nc(-c2ccon2)c1N=O`: the GI50 in the assay on BT-549 is 18.6 µM (inactive); in the assay with CAKI-1 it was 25.8 µM (inactive); in the assay on EKVX, 16.7 µM (inactive); with HCT-116 it was 23.1 µM (inactive); in the assay on HCT-15 it was 18.2 µM; in the assay on HL-60 it was 12.1 µM (inactive). For the same molecule, the GI50 with K562 is 18.5 µM (inactive); with MDA-MB-435 it was 20.5 µM (inactive); in the assay with NCI-H23, 19.3 µM (inactive); in the assay on NCI/ADR-RES, 19.8 µM (inactive); in the assay with OVCAR-3, 18.4 µM (inactive); with OVCAR-8, 17 µM (inactive). For the same molecule, the GI50 in the assay with SF-268 was 20 µM (inactive); with SF-295, 18.7 µM (inactive); with SK-MEL-5, 18.2 µM (inactive); in the assay on U-251, 17.9 µM (inactive); in the assay on UACC-62, 17.9 µM (inactive).
Regarding `CCCCN(CC)c1nc(C)nc2c1c(C)c(C)n2-c1c(C)cc(C)cc1C` [ANTALARMIN], the GI50 was 19.7 µM (inactive) with BT-549; 13.9 µM (inactive) in the assay with CAKI-1; 11.3 µM (inactive) with CCRF-CEM; 14.2 µM (inactive) in the assay on EKVX; 10.1 µM (inactive) in the assay on HCT-116; 13.6 µM in the assay on HCT-15. In addition, the GI50 in the assay on HL-60 was 4.1 µM (inactive); in the assay with K562, 12.5 µM (inactive); in the assay with LOX IMVI it was 15.6 µM (inactive); in the assay on MDA-MB-435 it was 17.1 µM (inactive); in the assay on NCI-H23, 14.5 µM (inactive); with NCI/ADR-RES, 13.6 µM (inactive). Besides, the GI50 is 13.3 µM (inactive) in the assay with OVCAR-3; 14.2 µM (inactive) in the assay with OVCAR-8; 17.4 µM (inactive) in the assay on SF-268; 14.3 µM (inactive) with SF-295; 5.21 µM (inactive) with SK-MEL-5; 11.7 µM (inactive) with U-251.
As to `Cn1c(=O)c2c(nc(Cc3ccccc3)n2CC(=O)O)n(C)c1=O`, the GI50 was > 100 µM (inactive) with BT-549; > 100 µM (inactive) in the assay on CAKI-1; > 100 µM (inactive) in the assay on CCRF-CEM; > 100 µM (inactive) in the assay with EKVX; > 100 µM (inactive) in the assay with HCT-116; more than 100 µM in the assay with HCT-15. Further, the GI50 in the assay on LOX IMVI, in the assay on MDA-MB-435, in the assay on NCI-H23, with NCI/ADR-RES, with OVCAR-3 and with OVCAR-8 was > 100 µM (inactive) each time. Also, the GI50 in the assay with SF-268, in the assay on SF-295, in the assay on SK-MEL-5, in the assay with U-251 and in the assay on UACC-62 was > 100 µM (inactive) throughout.
As to `CCOC(=O)/C(=N/Nc1ccccc1)N1C(=S)N(C)N=C(C)C=C1S`, the GI50 is 76.9 µM (inactive) in the assay with BT-549; > 100 µM (inactive) in the assay with CAKI-1; > 100 µM (inactive) in the assay on CCRF-CEM; > 100 µM (inactive) in the assay with EKVX; > 100 µM (inactive) in the assay with HCT-116; more than 100 µM in the assay with HCT-15. The GI50 is > 100 µM (inactive) in the assay on HL-60; > 100 µM (inactive) with K562; > 100 µM (inactive) in the assay with MDA-MB-435; 33.9 µM (inactive) with NCI-H23; > 100 µM (inactive) in the assay on NCI/ADR-RES; > 100 µM (inactive) in the assay with OVCAR-3. Further, the GI50 in the assay on OVCAR-8 was > 100 µM (inactive); in the assay on SF-268, 6.82 µM (inactive); with SF-295, 28.4 µM (inactive); in the assay on SK-MEL-5, > 100 µM (inactive); in the assay on U-251 it was 20 µM (inactive); in the assay with UACC-62, 83.4 µM (inactive).
In the case of `CC(C)(C)c1cc(C(=O)/C=C/c2ccc(C(=O)O)cc2)cc(C(C)(C)C)c1`, the GI50 in the assay on BT-549 was 2.21 µM (inactive); in the assay on CAKI-1, 3.86 µM (inactive); in the assay with CCRF-CEM, 2.91 µM (inactive); in the assay on EKVX, 3.19 µM (inactive); in the assay with HCT-116, 2.73 µM (inactive); in the assay with HCT-15, 1.91 µM. Moreover, the GI50 in the assay on HL-60 is 3.51 µM (inactive); in the assay on K562, 3.21 µM (inactive); in the assay with LOX IMVI, 3.2 µM (inactive); with MDA-MB-435 it was 2.16 µM (inactive); in the assay with NCI/ADR-RES it was 2.42 µM (inactive); with OVCAR-3 it was 2.35 µM (inactive). Also, the GI50 with OVCAR-8 was 2.44 µM (inactive); with SF-268 it was 2.18 µM (inactive); with SF-295, 2.58 µM (inactive); in the assay on SK-MEL-5 it was 3.99 µM (inactive); in the assay on U-251, 3.13 µM (inactive); in the assay with UACC-62 it was 1.77 µM (inactive).
Consider `COCCOc1nc(-c2ccccc2)nc2ccccc12`, for which the GI50 with BT-549 was 35.9 µM (inactive); with CAKI-1, 34.7 µM (inactive); in the assay with EKVX, 55.8 µM (inactive); with HCT-116, 46.1 µM (inactive); in the assay on HCT-15, 19.2 µM; with HL-60, 29.2 µM (inactive). The GI50 in the assay on K562 is 35.5 µM (inactive); with LOX IMVI it was 47.8 µM (inactive); with MDA-MB-435, 52.4 µM (inactive); with NCI-H23 it was 61.8 µM (inactive); in the assay on NCI/ADR-RES, 32.6 µM (inactive); in the assay with OVCAR-3, 95.1 µM (inactive). Besides, the GI50 was 42 µM (inactive) with OVCAR-8; 27.7 µM (inactive) with SF-268; 43.1 µM (inactive) in the assay with SF-295; 25.8 µM (inactive) with SK-MEL-5; 45.8 µM (inactive) in the assay with U-251; 20.7 µM (inactive) in the assay with UACC-62.
Take `COc1ccc2cc(/C=N\NC(=O)Nc3cccc4ccccc34)ccc2c1`: the GI50 with BT-549 is 49.4 µM (inactive); with CAKI-1 it was 23.8 µM (inactive); in the assay on CCRF-CEM, 21.3 µM (inactive); with EKVX, 30.6 µM (inactive); with HCT-116, 16.6 µM (inactive); in the assay on HCT-15, 67.5 µM. The GI50 in the assay with HL-60 was > 10 µM (inactive); with K562, 14.6 µM (inactive); in the assay with LOX IMVI, 33.9 µM (inactive); with MDA-MB-435, 50.6 µM (inactive); with NCI-H23 it was 24.3 µM (inactive); in the assay on NCI/ADR-RES, > 100 µM (inactive). The GI50 with OVCAR-8 was 24 µM (inactive); in the assay on SF-268, 52.6 µM (inactive); with SK-MEL-5 it was 37.3 µM (inactive); with U-251, 16.4 µM (inactive).
With `C=CCOCC1C2CCC3(OCCO3)C21` (stereo not given), the GI50 with BT-549 is > 100 µM (inactive); with CAKI-1, 30.4 µM (inactive); with CCRF-CEM, 99.5 µM (inactive); with EKVX it was > 100 µM (inactive); in the assay with HCT-116, > 100 µM (inactive); in the assay with HCT-15, more than 100 µM. Also, the GI50 in the assay with K562 was 46.9 µM (inactive); with LOX IMVI, > 100 µM (inactive); in the assay on MDA-MB-435, > 100 µM (inactive); in the assay on NCI-H23 it was 48.5 µM (inactive); with NCI/ADR-RES it was > 100 µM (inactive); with OVCAR-3 it was > 100 µM (inactive). In addition, the GI50 is > 100 µM (inactive) in the assay on OVCAR-8; > 100 µM (inactive) in the assay on SF-268; > 100 µM (inactive) with SF-295; > 100 µM (inactive) in the assay on SK-MEL-5; > 100 µM (inactive) with U-251; 30.1 µM (inactive) with UACC-62.
